As a reminder, the ED50 is the dose at which the effect has come halfway, by size or by number of responders.

In experiment [1] the test system is Adjuvant-Induced Arthritis in Rats. Put plainly: Established Adjuvant-Induced Arthritis in Rats (paw volume). The note with it: 24 h; rat; oral; dosed that day and 6 following days; ED50% decrease from control paw volume (uninjected left hind paw), one day after last dose. The class given is in vivo, Charles River Lewis male rats. The protocol:
A standard procedure for detecting and comparing the anti-inflammatory activity of compounds in this series for which there is good correlation with human efficacy is the adjuvant-induced arthritis test in rats.
Established Adjuvant-Induced Arthritis in Rats
Charles River Lewis male rats (130-150 grams) are injected subcutaneously in the plantar area of the right hind paw with 0.1 ml of adjuvant (Difco heat-killed, lyophilized Myobacterium butyricum suspended in mineral oil 5 mg./ml.). 20 Non-arthritic controls are injected with mineral oil. The animals are held for 2 weeks to allow development of arthritis. Paw volumes (uninjected, left hand paw) are measured and the adjuvant injected rats are culled and distributed to treatment groups of 10 of equal disease severity. Non-arthritic controls are distributed to 2 groups of 10. The rats are given oral doses of compound or PVA-Acacia (10 ml./kg.) on that day and on the 6 following days. One day after the last dose the paw volumes (uninjected, left hind paw) are measured using a Ugo Basile Volume Differential Meter Model 7101. [formula]
Dose-response regression lines of the % decrease are plotted on semi-log paper by visual fit and the ED50% decrease from control paw volume is determined by inspection.

In experiment [2] the test system is phenylquinone writhing in mice. The experiment is described as follows: phenylquinone writhing test in mice (analgesic). It counts as in vivo, Carworth CF-lS male mice. The note with it: po; mouse; intubated in 0.5% methylcellulose; phenylquinone 1.25 mg/kg i.p. 30 min later; observed 30-40 min after antagonist. As for the experimental part:
An equally reliable test that is used for testing analgesic activity of compounds is the phenylquinone writhing test in mice.
Writhing was caused in mice by the intraperitoneal injection of phenyl-p-benzoquinone (Siegmund, E., Cadmus, R., Lu, G., Proc. Soc. Exp. Biol, and Med., 95, 729, 1957).
Groups of 10 or more Carworth CF-lS male mice, 18-21 g each, were fasted 17-21 hours and were intubated with the writhing antagonist at several dose levels in 0.5% methylcellulose. 30 Minutes later the mice were challenged with phenylquinone (1.25 mg./kg., i.p., dissolved in ethanol and diluted to 5% ethanol with distilled water at 40° C.). […] ED50' s were obtained by the Litchfield and Wilcoxon Method (Litchfield, J. T. and Wilcoxon, F., J.P.E.T., 96, 99 1949) and the Weil moving average method (Weil, C., Biometrics, 8 ,249 1952). Peak time studies were also done with some of these compounds and their peak time ED50' s were recorded.
Background: Writhing tests count abdominal constrictions after an irritant is injected.

Molecules are shown by their SMILES.

For the compound `COc1ccc(-c2nc3n(c2-c2ccc(OC)cc2)C(F)C(F)(F)S3)cc1` (stereo not shown) [0 F F H F, 2,3-Dihydro-2,2,3-trifluoro-5,6-bis(p-methoxyphenyl)imidazo-[2,1-b]thiazole], the ED50 in experiment [1] was found to be 11 mg/kg.
Regarding `COc1ccc(-c2nc3n(c2-c2ccc(OC)cc2)CCS3)cc1` [0 H H H H, 2,3-Dihydro-5,6-bis(p-methoxyphenyl)imidazo[2,1-b]thiazole], the ED50 came to 5.5 mg/kg in experiment [1] and 64 mg/kg in experiment [2].
The corresponding values for `COc1ccc(-c2nc3n(c2-c2ccc(OC)cc2)CC[S+]3[O-])cc1` (stereo not shown) [1 H H H H, 2,3-Dihydro-5,6-bis(p-methoxyphenyl)imidazo[2,1-b]thiazole S-oxide] are 7.4 mg/kg and 8.7 mg/kg.
In the same order, the values of `COc1ccc(-c2nc3n(c2-c2ccc(OC)cc2)CCS3(=O)=O)cc1` [2 H H H H, 2,3-Dihydro-5,6-bis(p-methoxyphenyl)imidazo[2,1-b]thiazole S,S-dioxide] are 8 mg/kg and more than 130 mg/kg.

The values are drawn from patent publication US4064260A, “Anti-inflammatory diarylimidazothiazoles and their corresponding S-oxides” (E. I. Du Pont de Nemours and Company, priority 1976, dated 1977).
